≈ marks a conversion by molar mass, not a printed value.

Data on twelve compounds can be found in ChEMBL document CHEMBL6074624, “FDA-approved small molecule kinase inhibitors for cancer treatment (2001-2015): Medical indication, structural optimization, and binding mode Part I” (Bioorg Med Chem, 2024).

The test system of data set [1] is SK-MEL-28. Nature of the data set: Antiproliferative activity against human SK-MEL-28 cells assessed as reduction in cell growth after 3 days by MTT assay. The data set is classed as functional, cell-based. The settings on record: SK-MEL-28, 72 h. A general note: Tetrazolium assays rely on reduction of a dye to a coloured formazan, in cell work by metabolically active cells.

Data set [2] is described as follows: Clearance in Sprague-Dawley rat at 5 mg/kg, po. To be noted: in vivo. The data set is classed as ADME, organism-based.
Another data set relates to NCI-H1975. Nature of the data set: Antitumor activity against human NCI-H1975 cells xenografted in female nude mouse assessed as tumor growth inhibition at 20 mg/kg, po adminstered once daily for 25 days relative to control. It is filed as functional. To be noted: NCI-H1975, 600 h, time 25 day, read-out: TGI. In general terms: Xenograft models place foreign cells or tissue in a host animal.

Data set [3] concerns MDA-MB-231. Nature of the data set: Antitumor activity against human MDA-MB-231 cells xenografted in athymic nude mouse assessed as tumor growth inhibition at 20 mg/kg, po administered once daily for 11 days relative to control. The data set is classed as functional. To be noted: MDA-MB-231, 264 h, time 11 day, read-out: TGI.
The subject of data set [4] is KARPAS-299. The data set can be described thus: cells. To be noted: Homo sapiens, KARPAS-299, 24 h.
Data set [5] deals with KARPAS-299. Nature of the data set: Antitumor activity against ALK positive human KARPAS-299 cells xenografted in RNU nude rat assessed as tumor growth inhibition at 25 mg/kg, po administered for 2 weeks relative to control. It is filed as functional. To be noted: KARPAS-299, 336 h, read-out: TGI.
For data set [6], the system named is NCI-H2228. The data set can be described thus: Antitumor activity against ALK positive human NCI-H2228 cells xenografted in RNU nude rat assessed as tumor growth inhibition at 10 mg/kg, po administered for 2 weeks relative to control. The settings on record: NCI-H2228, 336 h, read-out: TGI. It is filed as functional.
Data set [7] concerns NCI-H2228. The data set can be described thus: Antitumor activity against ALK positive human NCI-H2228 cells xenografted in RNU nude rat assessed as tumor growth inhibition at 5 mg/kg, po administered for 2 weeks relative to control. The settings on record: NCI-H2228, 336 h, read-out: TGI. The data set is classed as functional.
In data set [8] the test system is KARPAS-299. Nature of the data set: Antitumor activity against ALK positive human KARPAS-299 cells xenografted in RNU nude rat assessed as tumor growth inhibition at 6.25 mg/kg, po administered for 2 weeks relative to control. The data set is classed as functional. The settings on record: KARPAS-299, 336 h, read-out: TGI.
In data set [9] the test system is KARPAS-299. The data set can be described thus: Antitumor activity against ALK positive human KARPAS-299 cells xenografted in RNU nude rat assessed as tumor growth inhibition at 12.5 mg/kg, po administered for 2 weeks relative to control. The data set is classed as functional. The settings on record: KARPAS-299, 336 h, read-out: TGI.
The subject of another data set is Caco-2. Nature of the data set: Cytotoxicity against human Caco-2 cells assessed as reduction in cell viability. The data set is classed as functional, cell-based.
Data set [10] can be described thus: Antitumor activity against human MDA-MB-231T cells xenografted in mouse assessed as tumor growth inhibition at 3 mg/kg, po relative to control. It is filed as functional. To be noted: read-out: TGI.
A short description of data set [11]: Oral bioavailability in human at 5 mg/kg. It is filed as ADME, organism-based. The settings on record: in vivo.
Data set [12] is described as follows: Antiproliferative activity against human MDA-MB-231T cells assessed as reduction in cell viability. The data set is classed as functional, cell-based.
In data set [13] the target is Dual specificity mitogen-activated protein kinase kinase 1 (Homo sapiens, UniProt Q02750). The data set can be described thus: Inhibition of MEK1 (unknown origin) phosphorylation by [gamma-33P]-ATP assay.
The nature of data set [14]: Antitumor activity against human MDA-MB-231T cells xenografted in mouse assessed as tumor growth inhibition at 1 mg/kg, po relative to control. The settings on record: read-out: TGI. It is filed as functional.
Data set [15] in a line: Intrinsic clearance in rat. The data set is classed as ADME.
For data set [16], the system named is SK-MEL-28. Nature of the data set: Cytotoxicity against human SK-MEL-28 cells assessed as reduction in cell viability after 24 hrs by MTT assay. It is filed as functional, cell-based. The settings on record: SK-MEL-28, 24 h.
Another data set concerns Ramos. The data set can be described thus: cells. To be noted: Homo sapiens.
Another data set relates to Jurkat. The data set can be described thus: cells. To be noted: Homo sapiens.
Data set [17] in a line: Toxicity in ICR mouse assessed as maximal tolerated dose measured for 7 days. To be noted: in vivo, time 7 day.
In a further data set the test system is 786-0. Nature of the data set: Antitumor activity against human 786-0 cells xenografted in nu/nu CD-1 mouse assessed as reduction in tumor growth at 10 mg/kg, po administered once daily for 21 days relative to control. It is filed as functional. The settings on record: 786-0, 504 h, time 21 day, read-out: TGI.
For another data set, the system named is COLO 205. The data set can be described thus: Antitumor activity against human COLO 205 cells xenografted in nu/nu CD-1 mouse assessed as reduction in tumor growth at 100 mg/kg, po administered once daily for 14 days relative to control. The data set is classed as functional. To be noted: COLO 205, 336 h, time 14 day, read-out: TGI.
The test system of data set [18] is MDA-MB-231. Nature of the data set: Antitumor activity against human MDA-MB-231 cells xenografted in nu/nu CD-1 mouse assessed as reduction in tumor growth at 3 mg/kg, po administered once daily for 14 days relative to control. To be noted: MDA-MB-231, 336 h, time 14 day, read-out: TGI. It is filed as functional.
Another data set concerns HT-29. The data set can be described thus: Antiproliferative activity against human HT-29 cells assessed as reduction in cell viability after 72 hrs by MTS assay. It is filed as functional, cell-based. To be noted: HT-29, 72 h.
The subject of a further data set is ACHN. The data set can be described thus: Antiproliferative activity against human ACHN cells assessed as reduction in cell viability measured after 48 hrs by SRB assay. It is filed as functional, cell-based. A general note: Sulforhodamine B stains cellular protein and so reports cell mass.
Data set [19] can be described thus: AUC in human. It is filed as ADME.
For data set [20], the system named is A549. Nature of the data set: Antitumor activity against human A549 cells harboring KRAS G12S mutant xenografted in athymic nude mouse assessed as tumor growth inhibition at […], po administered once daily for 21 days relative to control. The data set is classed as functional. To be noted: A549, 504 h, dose 2.5 mg/kg, time 21 day, read-out: TGI.
The nature of data set [21]: Solubility of compound in PBS at pH 7.4. It is filed as physicochemical.
Data set [22] relates to A549. Nature of the data set: Antitumor activity against human A549 cells harboring KRAS G12S mutant xenografted in athymic nude mouse assessed as tumor growth inhibition at 0.5 mg/kg, po administered once daily for 21 days relative to control. It is filed as functional. To be noted: A549, 504 h, time 21 day, read-out: TGI.
The subject of data set [23] is A549. The data set can be described thus: Antitumor activity against human A549 cells harboring KRAS G12S mutant xenografted in athymic nude mouse assessed as tumor growth inhibition at 5 mg/kg, po administered once daily for 21 days relative to control. It is filed as functional. To be noted: A549, 504 h, time 21 day, read-out: TGI.
Data set [24] in a line: Permeability of compound in human Caco-2 cells […]. It is filed as ADME, cell-based. To be noted: read-out: permeability.
Data set [25] has as its system A549. Nature of the data set: Antitumor activity against human A549 cells harboring KRAS G12S mutant xenografted in athymic nude mouse assessed as tumor growth inhibition at 0.1 mg/kg, po administered once daily for 21 days relative to control. The data set is classed as functional. To be noted: A549, 504 h, time 21 day, read-out: TGI.
Data set [26] in a line: Oral bioavailability in human. It is filed as ADME, organism-based. To be noted: in vivo.

Sequence of Dual specificity mitogen-activated protein kinase kinase 1 (Q02750 whole entry): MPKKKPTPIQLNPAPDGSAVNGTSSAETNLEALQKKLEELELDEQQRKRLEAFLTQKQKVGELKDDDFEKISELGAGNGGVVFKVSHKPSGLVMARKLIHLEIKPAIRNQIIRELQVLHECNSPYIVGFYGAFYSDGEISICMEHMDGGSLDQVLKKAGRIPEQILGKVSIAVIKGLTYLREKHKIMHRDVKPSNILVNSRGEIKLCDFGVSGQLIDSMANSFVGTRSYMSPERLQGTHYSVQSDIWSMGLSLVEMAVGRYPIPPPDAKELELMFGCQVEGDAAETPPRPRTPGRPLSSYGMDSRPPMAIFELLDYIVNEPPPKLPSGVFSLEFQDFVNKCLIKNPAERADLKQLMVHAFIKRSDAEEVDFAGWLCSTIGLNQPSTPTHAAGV

As to `CC(=O)N1CCN(c2ccc(Nc3nccc(-c4sc(C(C)C)nc4-c4cccc(NS(=O)(=O)c5ccccc5)c4)n3)cn2)CC1`, the EC50 with SK-MEL-28 [1] is 24 nM.

The compound `O=C(c1ccc(F)c(F)c1Nc1ccc(I)cc1F)N1CC(O)C1` showed a CL in data set [2] of 8.324 mL/min/kg.

As for `CN(C)C/C=C/C(=O)Nc1cc2c(Nc3ccc(F)c(Cl)c3)ncnc2cc1O[C@H]1CCOC1` [AFATINIB], the inhibition in vivo at 20 mg/kg with NCI-H1975 came to 12%.

For the compound `CCc1cc2c(cc1N1CCC(N3CCOCC3)CC1)C(C)(C)c1[nH]c3cc(C#N)ccc3c1C2=O` [ALECTINIB], the inhibition in vivo at 20 mg/kg in the data set with MDA-MB-231 [3] is 119%. Further, inhibition in the data set with KARPAS-299 [4] was half-maximal at 12.8 nM (IC50).

As for `Cc1cc(Nc2ncc(Cl)c(Nc3ccccc3S(=O)(=O)C(C)C)n2)c(OC(C)C)cc1C1CCNCC1` [CERITINIB], the inhibition in vivo at 25 mg/kg with KARPAS-299 [5] was 33%. In addition, the inhibition in vivo at 10 mg/kg in the data set with NCI-H2228 [6] was determined as 2%. Further, in the data set on NCI-H2228 [7], the inhibition in vivo at 5 mg/kg is 67%. In the data set on KARPAS-299 [8], the inhibition in vivo at 6.25 mg/kg was determined as 74%. Besides, in the data set with KARPAS-299 [9], the inhibition in vivo at 12.5 mg/kg is 30%.

On to `O=C(NOCC1CC1)c1ccc(F)c(F)c1Nc1ccc(I)cc1Cl` [CI-1040], for which, in the data set with Caco-2, the IC50 was 35 nM.

Take `O=C(c1ccc(F)c(F)c1Nc1ccc(I)cc1F)N1CC(O)([C@@H]2CCCCN2)C1` [COBIMETINIB]: the inhibition in vivo at 3 mg/kg in data set [10] is 93%. Moreover, the bioavailability in data set [11] is 77%. For the same compound, the results for the IC50 in [12] and in data set [13] were 0.2 nM and 6.6 nM, respectively. Besides, the inhibition in vivo at 1 mg/kg in [14] stood at 60%.

For `CC(C)(C)c1nc(-c2cccc(NS(=O)(=O)c3c(F)cccc3F)c2F)c(-c2ccnc(N)n2)s1` [DABRAFENIB], the clearance in data set [15] was found to be 19 mL/min/kg. The IC50 in the data set on SK-MEL-28 [16] amounted to 3 nM.

Take `C=CC(=O)N1CCC[C@@H](n2nc(-c3ccc(Oc4ccccc4)cc3)c3c(N)ncnc32)C1` [IBRUTINIB]: the values for the IC50 in the data set with Ramos and in the data set with Jurkat were 40 nM and 470 nM, respectively.

Regarding `O=C(NOC[C@H](O)CO)c1ccc(F)c(F)c1Nc1ccc(I)cc1F` [MIRDAMETINIB], the MTD at 168 h in data set [17] worked out at 25 mg/kg.

`CNC(=O)c1cc(Oc2ccc(NC(=O)Nc3ccc(Cl)c(C(F)(F)F)c3)c(F)c2)ccn1` [REGORAFENIB]: the inhibition in vivo at 10 mg/kg in the data set with 786-0 is above 90%. Moreover, in the data set with COLO 205, the inhibition in vivo at 100 mg/kg was 75%. Moreover, in the data set with MDA-MB-231 [18], the inhibition in vivo at 3 mg/kg was determined as 81%.

On to `CC(=O)Nc1cccc(-n2c(=O)n(C3CC3)c(=O)c3c(Nc4ccc(I)cc4F)n(C)c(=O)c(C)c32)c1` [TRAMETINIB], for which the IC50 in the data set on HT-29 was 0.57 nM; in the data set with ACHN it was 9.8 nM. This compound also gave an AUC in data set [19] of 88.3 µM·h. In addition, the inhibition in vivo at […] in the data set on A549 [20] worked out at 87%. In data set [21], this compound came in with a solubility of 5.3 µM (≈ 3.26 µg/mL). Moreover, the inhibition in vivo at 0.5 mg/kg in the data set with A549 [22] was determined as 62%. Also, the inhibition in vivo at 5 mg/kg in the data set with A549 [23] was 92%. Further, in data set [24], the Papp was 26 ×10⁻⁶ cm/s. For the same compound, the inhibition in vivo at 0.1 mg/kg in the data set with A549 [25] came out at 58%. Further, in data set [26], the bioavailability was determined as 30%.

The EC50 is the concentration at which the effect is half-maximal. As a reminder, the IC50 is the point on the concentration scale where inhibition reaches its midpoint. Usually bioavailability stands for the share of a dose that reaches the circulation, judged against a reference dose that is usually intravenous. A high value points to much systemic uptake. By MTD is commonly meant the largest dose that counted as tolerated. The AUC is the area under the concentration-time curve, a measure of exposure. A higher AUC goes with more exposure. One may read the solubility as the concentration that dissolves in the medium under given conditions. A high value points to a readily soluble substance.
